Earlier results in PMC6545338, “Novel chemical starting points for drug discovery in leishmaniasis and Chagas disease” (International Journal for Parasitology: Drugs and Drug …, 2019).

Tested on: T. cruzi
Set-up: method as in Morillo et al., 2017a
Conditions: ref Morillo et al., 2017a; for Efficacy in the STOP-CHAGAS trial: patients

O=C(Cn1ccnc1[N+](=O)[O-])NCc1ccccc1 [benznidazole]
Patients who had to permanently discontinue treatment due to side effects (benznidazole-treated group): 32% | Efficacy in the STOP-CHAGAS trial: 62%

CC[C@@H]([C@H](C)O)n1ncn(-c2ccc(N3CCN(c4ccc(OC[C@@H]5CO[C@@](Cn6cncn6)(c6ccc(F)cc6F)C5)cc4)CC3)cc2)c1=O [posaconazole]
Efficacy in the STOP-CHAGAS trial: 19%
